According to patent US20100160369A1, “S1P1 Agonists and Methods of Making And Using” (EXELIXIS, INC., priority 2008, published 2010):

Tests used:
[1] = biological target: T1, S1P1 (Homo sapiens, UniProt P21453); test: CNG cAMP Assay (Assay 1); assay type: cell-based; set-up: host or cells: HEK293 cells expressing the CNG channel
Method in brief: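 cAMP-gated CNG membrane-potential read-out (350/590 nm, T90/T0 ratio) in S1P1/CNG HEK293 cells after 90 min with compound plus NECA 500 nM, S1P 10 nM (EC95), Ro 20-1724 25 μM. Ten 3-fold points from 10 μM, 1.8% DMSO; percent activity vs NECA-only control gives EC50.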
Target sequence in this assay (P21453 whole entry): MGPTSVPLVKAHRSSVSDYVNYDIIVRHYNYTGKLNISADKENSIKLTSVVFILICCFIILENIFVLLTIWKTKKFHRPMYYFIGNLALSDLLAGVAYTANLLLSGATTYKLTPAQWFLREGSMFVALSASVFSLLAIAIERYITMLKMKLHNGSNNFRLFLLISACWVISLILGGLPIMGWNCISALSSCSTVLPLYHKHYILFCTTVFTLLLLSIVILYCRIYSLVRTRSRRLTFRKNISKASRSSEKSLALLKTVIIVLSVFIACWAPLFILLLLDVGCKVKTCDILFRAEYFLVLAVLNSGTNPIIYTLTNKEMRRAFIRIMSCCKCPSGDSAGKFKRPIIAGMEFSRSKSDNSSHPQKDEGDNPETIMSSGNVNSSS

[2] = biological target: T1, S1P1; test: Tango β-arrestin Recruitment Assay in HEK293 cells (Assay 2a); assay type: cell-based; set-up: linker with TEV protease (N1a) cleavage site (C); host or cells: HEK293, transiently transfected
Source text: For the Tango™ β-arrestin recruitment assay, the cytoplasmic C-terminus of S1P1 is tethered to the tTA transcriptional activator with a linker that contains a cleavage site for the N1a protease from tobacco etch virus (TEV protease). The C-terminus of the human β-arrestin2 protein is fused to TEV protease. Binding of an agonist recruits the β-arrestin-TEV fusion protein to the receptor resulting in cleavage of the linker and release of tTA to enter the nucleus and subsequently activate a tTA-dependent luciferase reporter gene.
Frozen HEK293 cells transiently transfected with receptor cDNAs for S1P1 (Invitrogen) were thawed and suspended in 10 mL of Pro293a-CDM culture medium (Invitrogen) supplemented with 4 mM L-Glutamine (Invitrogen), 1× Pen/Strep (100 units/mL penicillin and 100 μg/mL streptomycin, Invitrogen) and 0.1% fatty acid free BSA (Sigma-Aldrich). Cells were added to the wells of a 384-well white opaque bottom assay plate (PerkinElmer) at 3,000-6,000 cells per well and the plate was incubated for approximately 4 h in a 37° C. incubator. Test compounds were tested at maximum concentrations of 10 μM for the agonist assays. Compounds were diluted in DMSO (10 concentration points, 3-fold each) and added to the assay plate at a 1% final DMSO concentration. For each compound, there were duplicate assay plates and each assay plate had duplicate wells per concentration point. The plate was incubated at 37° C. for 30 min. The efficacy control was 5 μM S1P (Avanti). Following agonist addition, the assay plates were incubated in a 37° C. incubator for 16-18 h. Luciferase assay reagent was added and luminescence measured in an EnVision plate reader (PerkinElmer). To determine agonist activity, percent activity was calculated as [(test compound−background)/(positive control−background)* 100], where background is the luminescence of the DMSO alone control and the positive control is the luminescence from cells incubated with the efficacy control 5 μM S1P. The percent activities were plotted against compound concentration to determine EC50 using XLFit (IDBS).
Assay 1 is the CNG cAMP Assay as described in Biological Example 1. Assay 2a and 2b are the Tango™ β-arrestin Recruitment Assay in HEK293 and U2OS cells, respectively, as described in Biological Example 2. Assay 3a is the hS1P1R GTPγS Binding Assay as described in Biological Example 3. Assay 3b is the GTP-Eu Binding Assay as described in Biological Example 3. EC50's were measured unless otherwise noted. […] In the table, “nt” means the Compound was not tested and “no” means the compound was tested but had no measurable activity under the assay conditions employed.
Target sequence in this assay (P21453 whole entry): as above
Target sequence in this assay (P32121 whole entry partner): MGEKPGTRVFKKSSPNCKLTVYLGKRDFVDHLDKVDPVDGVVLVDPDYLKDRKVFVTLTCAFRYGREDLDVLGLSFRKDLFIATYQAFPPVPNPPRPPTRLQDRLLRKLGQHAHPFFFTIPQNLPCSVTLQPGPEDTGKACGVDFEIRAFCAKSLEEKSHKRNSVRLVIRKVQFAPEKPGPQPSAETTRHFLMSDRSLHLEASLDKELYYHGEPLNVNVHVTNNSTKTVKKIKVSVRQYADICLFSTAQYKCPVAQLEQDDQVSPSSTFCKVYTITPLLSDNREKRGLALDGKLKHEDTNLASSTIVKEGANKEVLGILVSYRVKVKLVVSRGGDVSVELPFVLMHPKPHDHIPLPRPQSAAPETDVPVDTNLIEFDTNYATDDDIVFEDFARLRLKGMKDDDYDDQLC

[3] = Tango β-arrestin Recruitment Assay, read-out: Assay 2a EC50
[4] = Tango β-arrestin, footnote 1: Relative EC50 was measured, read-out: Assay 2a Relative EC50
[5] = footnote 1: Relative EC50 was measured, read-out: Assay 1 Relative EC50

Row | SMILES | EC50 ([1]; read-out: Assay 1 EC50) | EC50 [2, 3] | other results
1 | O=C(O)/C=C/c1ccc(-c2noc(-c3cn4cc(C(F)(F)F)cc(Cl)c4n3)n2)c(Cl)c1 [Entry 3] | ≤ 100 nM | 100 to 500 nM | 
2 | NC(=O)CCc1ccc(-c2noc(-c3cn4cc(C(F)(F)F)cc(Cl)c4n3)n2)c(Cl)c1 [Entry 20] | ≤ 100 nM | ≤ 100 nM | 
3 | O=C(O)C(O)COc1cc(Cl)c(-c2noc(-c3cn4cc(C(F)(F)F)cc(Cl)c4n3)n2)cc1Cl (stereo not drawn) [Entry 58] |  | ≤ 100 nM | 
4 | Cc1ccc(Oc2cc(Cl)c3nc(-c4nc(-c5cc(F)c(CCC(=O)O)cc5Cl)no4)cn3c2)cc1 [Entry 67] |  | ≤ 100 nM | 
5 | O=C(O)CCc1cc(Cl)c(-c2noc(-c3cn4cc(Br)cc(Br)c4n3)n2)cc1F [Entry 71] |  | ≤ 100 nM | 
6 | COCCOc1cc(Cl)c(-c2noc(-c3cn4cc(C(F)(F)F)cc(Cl)c4n3)n2)cc1Cl [Entry 76] |  | ≤ 100 nM | 
7 | OC(CF)COc1cc(Cl)c(-c2noc(-c3cn4cc(C(F)(F)F)cc(Br)c4n3)n2)cc1Cl (stereo not drawn) [Example 110, 1-[(4-{5-[8-bromo-6-(trifluoromethyl)imidazo[1,2-a]pyridin-2-yl]-1,2,4-oxadiazol-3-yl}-2,5-dichlorophenyl)oxy]-3-fluoropropan-2-ol] |  | ≤ 100 nM | 
8 | OCCNCc1cc(Cl)c(-c2noc(-c3cn4cc(C(F)(F)F)cc(Cl)c4n3)n2)cc1Cl [Example 138, 2-{[(2,5-dichloro-4-{5-[8-chloro-6-(trifluoromethyl)imidazo[1,2-a]pyridin-2-yl]-1,2,4-oxadiazol-3-yl}phenyl)methyl]amino}ethanol] |  |  | EC50 [2, 4]: 100 to 500 nM
9 | CC(Cc1cc(Cl)c(-c2noc(-c3cn4cc(C(F)(F)F)cc(Cl)c4n3)n2)cc1Cl)C(=O)O (stereo not drawn) [Example 190, 3-(2,5-dichloro-4-{5-[8-chloro-6-(trifluoromethyl)imidazo[1,2-a]pyridin-2-yl]-1,2,4-oxadiazol-3-yl}phenyl)-2-methylpropanoic acid] |  |  | EC50 [2, 4]: 100 to 500 nM
10 | CC(Cc1cc(Cl)c(-c2noc(-c3cn4cc(C(F)(F)F)cc(Br)c4n3)n2)cc1Cl)C(=O)O (stereo not drawn) [Example 225, 3-(4-{5-[8-bromo-6-(trifluoromethyl)imidazo[1,2-a]pyridin-2-yl]-1,2,4-oxadiazol-3-yl}-2,5-dichlorophenyl)-2-methylpropanoic acid] |  |  | EC50 [2, 4]: 100 to 500 nM
11 | CC(Cc1cc(Cl)c(-c2nc(-c3cn4cc(C(F)(F)F)cc(Cl)c4n3)no2)cc1Cl)C(=O)O (stereo not drawn) [Example 241, 3-(2,5-dichloro-4-{3-[8-chloro-6-(trifluoromethyl)imidazo[1,2-a]pyridin-2-yl]-1,2,4-oxadiazol-5-yl}phenyl)-2-methylpropanoic acid] |  | ≤ 100 nM | 
12 | CS(=O)(=O)Nc1c(F)cc(-c2noc(-c3cn4cc(C(F)(F)F)cc(Cl)c4n3)n2)cc1F [Example 265, N-(4-{5-[8-chloro-6-(trifluoromethyl)imidazo[1,2-a]pyridin-2-yl]-1,2,4-oxadiazol-3-yl}-2,6-difluorophenyl)methanesulfonamide] |  |  | EC50 [1, 5]: 500 to 1000 nM
13 | CS(=O)(=O)Nc1ccc(-c2noc(-c3cn4cc(C#N)cc(Cl)c4n3)n2)c(Cl)c1 [Example 269, N-{3-chloro-4-[5-(8-chloro-6-cyanoimidazo[1,2-a]pyridin-2-yl)-1,2,4-oxadiazol-3-yl]phenyl}methanesulfonamide] |  |  | EC50 [1, 5]: 5000 to 10000 nM
14 | Cc1cc(Cl)c2nc(-c3nc(-c4ccc(NS(C)(=O)=O)cc4Cl)no3)cn2c1 [Example 270, N-{3-chloro-4-[5-(8-chloro-6-methylimidazo[1,2-a]pyridin-2-yl)-1,2,4-oxadiazol-3-yl]phenyl}methanesulfonamide] |  |  | EC50 [1, 5]: 5000 to 10000 nM
15 | O=c1[nH]c(Cc2ccc(-c3noc(-c4cn5cc(C(F)(F)F)cc(Cl)c5n4)n3)c(Cl)c2)no1 [Example 271, 3-[(3-chloro-4-{5-[8-chloro-6-(trifluoromethyl)imidazo[1,2-a]pyridin-2-yl]-1,2,4-oxadiazol-3-yl}phenyl)methyl]-1,2,4-oxadiazol-5(4H)-one] | 100 to 500 nM |  | 
16 | FC(F)(F)c1cc(Cl)c2nc(-c3nc(-c4ccccc4Cl)no3)cn2c1 [Example 273, 8-chloro-2-[3-(2-chlorophenyl)-1,2,4-oxadiazol-5-yl]-6-(trifluoromethyl)imidazo[1,2-a]pyridine] | ≤ 100 nM |  | 
17 | O=C(O)[C@@H]1C[C@H](Oc2ccc(-c3noc(-c4cn5cc(C(F)(F)F)cc(Cl)c5n4)n3)c(Cl)c2)CN1 [Example 276, (4S)-4-[(3-chloro-4-{5-[8-chloro-6-(trifluoromethyl)imidazo[1,2-a]pyridin-2-yl]-1,2,4-oxadiazol-3-yl}phenyl)oxy]-L-proline] | ≤ 100 nM |  | 
18 | FC(F)(F)c1cc(Cl)c2nc(-c3nc(-c4cnccc4C(F)(F)F)no3)cn2c1 [Example 290, 8-chloro-6-(trifluoromethyl)-2-{3-[4-(trifluoromethyl)pyridin-3-yl]-1,2,4-oxadiazol-5-yl}imidazo[1,2-a]pyridine] | 1000 to 5000 nM |  | 
19 | N#Cc1cc(C(F)(F)F)cn2cc(-c3nc(-c4ccc(F)cc4Cl)no3)nc12 [Example 291, 2-[3-(2-chloro-4-fluorophenyl)-1,2,4-oxadiazol-5-yl]-6-(trifluoromethyl)imidazo[1,2-a]pyridine-8-carbonitrile] | 100 to 500 nM |  | 
20 | O=C(O)Cn1ccc2c(-c3noc(-c4cn5cc(C(F)(F)F)cc(Cl)c5n4)n3)cccc21 [Example 293, (4-{5-[8-chloro-6-(trifluoromethyl)imidazo[1,2-a]pyridin-2-yl]-1,2,4-oxadiazol-3-yl}-1H-indol-1-yl)acetic acid] | 500 to 1000 nM |  | 

Second part, led by results:

Row | EC50 ([1]; read-out: Assay 1 EC50) | EC50 [2, 3] | SMILES | other results
21 | ≤ 100 nM | 100 to 500 nM | O=C(O)CCc1ccc(-c2noc(-c3cn4cc(C(F)(F)F)cc(Cl)c4n3)n2)c(F)c1 [Entry 19] | 
22 |  | ≤ 100 nM | CC(O)COc1c(Cl)cc(-c2noc(-c3cn4cc(C(F)(F)F)cc(Cl)c4n3)n2)cc1Cl (stereo not drawn) [Example 104, 1-[(2,6-dichloro-4-{5-[8-chloro-6-(trifluoromethyl)imidazo[1,2-a]pyridin-2-yl]-1,2,4-oxadiazol-3-yl}phenyl)oxy]propan-2-ol] | 
23 |  | ≤ 100 nM | OCCNc1ccc(-c2noc(-c3cn4cc(C(F)(F)F)cc(Cl)c4n3)n2)c(Cl)c1 [Example 115, 2-[(3-chloro-4-{5-[8-chloro-6-(trifluoromethyl)imidazo[1,2-a]pyridin-2-yl]-1,2,4-oxadiazol-3-yl}phenyl)amino]ethanol] | 
24 | 500 to 1000 nM |  | CS(=O)(=O)Nc1c(F)cc(-c2noc(-c3cn4cc(C(F)(F)F)cc(Cl)c4n3)n2)cc1Cl [Example 268, N-(2-chloro-4-{5-[8-chloro-6-(trifluoromethyl)imidazo[1,2-a]pyridin-2-yl]-1,2,4-oxadiazol-3-yl}-6-fluorophenyl)methane sulfonamide] | 
25 |  | 100 to 500 nM | CC(=O)OCCOc1c(Cl)cc(-c2noc(-c3cn4cc(C(F)(F)F)cc(Cl)c4n3)n2)cc1Cl [Example 279, 2-[(2,6-dichloro-4-{5-[8-chloro-6-(trifluoromethyl)imidazo[1,2-a]pyridin-2-yl]-1,2,4-oxadiazol-3-yl}phenyl)oxy]ethyl acetate] | 
26 |  | ≤ 100 nM | OCCOc1c(Cl)cc(-c2noc(-c3cn4cc(C(F)(F)F)cc(Cl)c4n3)n2)cc1Cl [Example 280, 2-[(2,6-dichloro-4-{5-[8-chloro-6-(trifluoromethyl)imidazo[1,2-a]pyridin-2-yl]-1,2,4-oxadiazol-3-yl}phenyl)oxy]ethanol] | 
27 | 100 to 500 nM |  | Fc1ccc(-c2noc(-c3cn4cc(C(F)(F)F)cc(Br)c4n3)n2)c(Cl)c1 [Example 281, 8-bromo-2-[3-(2-chloro-4-fluorophenyl)-1,2,4-oxadiazol-5-yl]-6-(trifluoromethyl)imidazo[1,2-a]pyridine] | 
